Patent publication US10961246B2, “18F-labelled folates as PET radiotracers” (MERCK & CIE, priority 2008, dated 2021)

Columns and labels:
folate receptor [1] = molecular target: T1, folate receptor (Homo sapiens, UniProt P15328); test: Ex vivo biodistribution study in mice bearing KB tumor xenografts, control vs folic acid blockade; parameters: species or system male NMRI nu/nu mice; conditions: ~2 MBq radiotracer; blockade group 200 μg natural folic acid 10 min prior; sacrificed 105 min post injection; KB tumor
T1 construct: endogenous in cells; host or cells: KB tumor xenografts in male NMRI nu/nu mice
T1 sequence (P15328 25-234 limits assumed): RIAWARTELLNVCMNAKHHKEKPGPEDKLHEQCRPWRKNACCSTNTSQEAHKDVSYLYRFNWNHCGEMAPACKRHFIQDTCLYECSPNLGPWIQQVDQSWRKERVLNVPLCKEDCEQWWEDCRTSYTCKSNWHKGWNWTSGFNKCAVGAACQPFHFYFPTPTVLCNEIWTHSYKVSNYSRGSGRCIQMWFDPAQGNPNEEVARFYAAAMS
Procedure: (§1) γ-[^18F]fluoro-folic acid was applied in ex vivo biodistribution studies using male NMRI nu/nu mice bearing KB tumor xenografts. ˜2 MBq of the radiotracer were injected into each animal. In a blockade group, 200 μg natural folic acid was injected 10 min prior to the radiotracer. The animals were sacrificed 105 min post injection.

folate receptor [2] = test: as above; parameters: species or system male NMRI nu/nu mice
Procedure: as §1

folate receptor [3] = molecular target: T1, folate receptor; assay type: in vivo, male NMRI nu/nu mice; conditions: blockade 200 μg natural folic acid 10 min prior; scans 75-105 min post injection
Procedure: (§2) In vivo PET imaging using the γ-[^18F]fluoro-folic acid was performed in male NMRI nu/nu mice bearing KB tumor xenografts. Ca. 10 MBq of the radiotracer were injected into each animal. In the blockade group, 200 μg natural folic acid was injected 10 min prior to the radiotracer. The PET scans were acquired from 75 min to 105 min post injection.
(§3) This pattern is consistent with the physiological distribution of the folate receptor and points out the high specificity of γ-[^18F]fluoro-folic acid.
(§4) FIG. 3 show representative series of normalized horizontal slices of whole body PET scans using γ-[^18F]fluoro-folic acid under control and blockade conditions. Arrows with circles indicate the tumor site and arrows with squares indicate the kidneys.

folate receptor [4] = assay type: in vivo, male NMRI nu/nu mice; conditions: ca. 10 MBq; scans 75-105 min post injection
Procedure: as §2, §3, §4

## Nc1nc2ncc(CNc3ccc(C(=O)N[C@@H](CC([18F])C(=O)O)C(=O)O)cc3)nc2c(=O)[nH]1 (stereo partly shown) [γ-[^18F]fluoro-folic acid, γ-[^18F]fluorofolic acid]
Folate receptor [1]
  specific blockade of radiotracer uptake in folate receptor-positive KB tumors: 90.0%
Folate receptor [2]; control group vs blockade group
  uptake in folate receptor-positive tissues, such as tumor and kidney (FIG. 2): high specific uptake
Folate receptor [2]; ~2 MBq radiotracer, blockade group 200 μg natural folic acid 10 min prior, sacrificed 105 min post injection, kidneys
  specific blockade of radiotracer uptake in the kidneys: 86.0%
Folate receptor [3]
  specificity of uptake in PET: highly specific and blocked by natural folic acid
Folate receptor [4]
  uptake in liver cells (PET): radioactivity accumulation
  uptake in the kidney cortex (PET): high specific uptake
  uptake in the kidney medulla (PET): no uptake
